Measurements published in patent US8236761B2, “C-Met receptor regulation by angiotensin IV (AT4) receptor ligands” (Washington State University Research Foundation, priority 2006, dated 2012).
Non-standard residues stand in square brackets, D forms with d. No end group written: not given here. Nle = CCCC[C@H](N)C(=O)O

What was measured:
c-Met = c-Met (Homo sapiens, UniProt P08581); test: Immunoprecipitation/Western blot of HGF-dependent c-Met and Gab1 phosphorylation and association in HEK293 cells; format: cell-based; parameters: host or cells: HEK293; conditions: HEK293 cells, 10 minutes
Description: (FIG. 5A) HEK293 cells were treated for 10 minutes with HGF at indicated concentrations. Lysates were immunoprecipitated (IP) with anti-c-Met antibody (DO-24) and immunoblotted (IB) with anti-c-Met or anti-phospho-tyrosine (06-427) antibody. (FIG. 5B) HEK293 cells were treated for 10 minutes with HGF and/or Norleual. Lysates were IP with anti-c-Met (DO-24) and IB with anti-c-Met (DQ-13) or anti-phospho-tyrosine (HAM 1676). (FIG. 5C) HEK293 lysates were IP with anti-c-Met (DO-24) and IB with anti-Gab1. (FIG. 5D) HEK 293 lysates were IP with anti-Gab1 and IB with anti-Gab1 or anti-phospho-tyrosine (HAM 1676). (FIGS. 5E, 5F, 5G) Relative amounts (normalized to % total c-Met in IP) of quantified IP/IB band intensities for control, 110 pM HGF-, 110 pM HGF and 20 pM Norleual-, and 20 pM Norleual-treated HEK293 cells for phospho-c-Met (FIG. 5E, n=4), phospho-Gab1 (FIG. 5F, n=4), and c-Met associated Gab1 (FIG. 5G, n=3). Error bars indicate ±SD.
HEK293 cells were treated for 10 minutes with HGF and/or Norleual at the indicated concentrations. Lysates were IP with anti-c-Met (DO-24, Millipore/Upstate, Billerica, Mass.) and IB with anti-c-Met (DQ-13, Millipore/Upstate) or anti-phosphotyrosine (HAM1676, lot JLB03, R&D Systems, Inc., Minneapolis, Minn.).
Immunoprecipitation and Western blotting. Cells were serum starved for two hours in DMEM before treatment. Cells were harvested using RIPA lysis buffer (Upstate Biotechnol. Inc., Lake Placid, N.Y.) with phosphatase inhibitor cocktails 1 and 2 (Sigma, St Louis, Mo., USA). Protein concentration was determined using the BCA assay (Pierce, Rockford, Ill., USA). Lysates were incubated with antibody overnight at 4° C. Immunoprecipitation controls received mouse non-specific Ig (Upstate). Proteins were captured with protein-A agarose (Upstate) and were washed with PBS. Proteins were resolved using SDS-PAGE electrophoresis (Criterion, BioRad, Hercules, Calif., USA), transferred to nitrocellulose, and incubated with appropriate antibodies. Proteins were visualized using the Supersignal West Pico Chemiluminescent Substrate system (Pierce). The film images were digitized and analyzed using TotalLab® software (AmershamPharmacia/GE HealthCare, Piscataway, N.J.).
Whether the interaction of Norleual with the c-Met receptor had functional consequences regarding c-Met signaling was next investigated by determining whether Norleual could alter the phosphorylation status of cellular protein tyrosine phosphate (FIG. 4) and more specifically, of c-Met (i.e., c-Met activation), and also whether Norleual could modulate Gab1 association with c-Met. Human embryonic kidney HEK293 cells were activated by HGF in the presence or absence of Norleual. Solubilized membranes were immunoprecipitated (IP) with an anti-c-Met antibody and immunoblotted (IB) for total c-Met, anti-phospho-tyrosine to detect the activated form of c-Met, and anti-Gab1 to detect c-Met/Gab1 association. […] To confirm these findings, treated HEK293 lysates were precipitated with anti-Gab1 and blotted for total Gab1 and phospho-Gab1, its activated form. Again, Norleual inhibited HGF-induced Gab1 phosphorylation (FIGS. 5D, […]).

[1] = tested on: HEK293 cell membranes (c-Met system); test: 125I-Norleual binding assay, HEK293 cell membranes; parameters: species or system human; conditions: 1.5 nM HGF or 1 μM Norleual
Description: (§1) FIG. 3C: ^125I-Norleual was bound to HEK membranes in the presence or absence of 1.5 nM HGF (n=8) or 1 μM Norleual (n=6). Total binding is reported as percent control (n=10), (*p<0.001). Error bars indicate±SD. […] Error bars indicate SD and data points were performed in duplicate.
^125I-Norleual binding assay. HEK293 cells were grown to confluency in DMEM fortified with 10% FBS. Media was aspirated and cells were washed twice with ice-cold PBS. Cells were lysed with hypotonic buffer and homogenized as described by Zhang et al. (1999, J. Pharmacol. Exp. Ther. 289: 1075-1083; 2003 J. Cell Biochem. 88: 408-417). 450 μg of membrane protein was incubated with 1.5 nM ^125I-Norleual with or without Norleual or HGF in a total volume of 250 μl PBS, 0.1% BSA. Tubes were spun and binding was carried out for 60 minutes at RT. Bound and free ligands were separated by vacuum filtration using (Brandel Cell Harvester, Schleicher & Schull, Keene, N.H., USA) 32 glass filters. Radioactivity retained by the filters was measured using a gamma counter. […] Data analysis was preformed using Prism software (GraphicPad) per the supplier's recommendations.
Materials and methods were as described in Example 1. In separate tests of unlabeled competitors, both Norleual and HGF competed with ^125I-HGF for high affinity binding to mouse liver plasma membranes (FIGS. 2A, 2B). […]

c-Met receptor = test: Cross-linking of 125I-COMPOUND 2 or 125I-HGF to HEK293 cell membranes with unlabeled competitor; format: binding, human; conditions: cross-linked, 1 nM competitor
Description: as §1
Briefly, COMPOUND 2 was iodinated with […] and bound and cross-linked to HEK cell membranes with or without 1 nM COMPOUND 2 or 1 nM hepatocyte growth factor. Following solubilization and separation of free label by molecular sieving, total radioactive counts were determined. The ability of the ligand COMPOUND 2 to compete with hepatocyte growth factor binding to the c-Met receptor was also tested using mouse liver plasma membranes and intact HEK293 cells. Briefly, mouse liver was homogenized and incubated with ^125I-HGF with various concentrations of HGF or COMPOUND 2. Membranes were pelleted and unbound label was removed by washing, and total radioactive counts were determined. Next, HEK293 cell membranes were cross-linked with ^125I-HGF with unlabeled HGF or COMPOUND 2.

neovascularization = test: Disc angiogenesis assay (subcutaneous sponge disc); format: in vivo, Sprague Dawley rats; conditions: 50 μg per disc core, 14 days, rat
Description: FIG. 19 depicts effects on angiogenesis of angiotensin-like factors in a rat in vivo disc angiogenesis assay. Vascularization was quantified by digital image analysis of fixed and stained discs recovered from animals 14 days after subcutaneous implantation of sponge discs containing the indicated compounds.
Disc Angiogenesis Assay. […] A 2 mm core was removed from the center of each disc, saturated with 50 μg of Nle^1-AngIV (SEQ ID NO:41), Nle^1-Leu^3-Ψ(CH2NH2)^3-4-AngIV, Hexamide, or ethanol (control), air dried, then sealed using a fixative (Elvax, DuPont) to allow sustained delivery of the drug treatment into the disc and adjacent tissues. The cores were dried for 30 min, then reinserted into the sponge discs. Impermeable top and bottom covers were prepared by coating 10 mm diameter paper discs with a plexiglass coating, then glued to the top and bottom of the sponge discs, leaving only the rim of the disc available for centripetal cellular penetration. Just prior to implantation, the discs were soaked briefly in sterile saline.
Thirty-two Sprague Dawley female rats (225-275 gr) were used to evaluate four compounds for angiogenic or anti-angiogenic properties using the disc angiogenesis assay. Animals were anesthetized using sodium pentobarbital (40 mg/kg IP). The dorsum was then shaved and aseptically prepped. Each animal received four discs. Animals receiving treated discs were implanted with 2 treated discs and 2 ethanol-soaked control discs. Thus, in a group of 4 animals there were 8 treatment discs, and 8 control discs. These control discs were used to determine whether the ligand had potential systemic effects. Another group of 4 animals received only ethanol-soaked control discs (spontaneous growth controls or SGC discs) for an n=16. However, one SGC was fragmented during processing leaving an n=15.
Four 2 cm cutaneous incisions were made along the dorsum (left thoracic, right thoracolumbar, left thoracolumbar, and right lumbar), and subcutaneous pouches opened in the fascia using blunt dissection. Discs were moistened in sterile saline, inserted deep to the pouch, and the skin closed with sterile surgical staples. Animals were recovered under heat lamps until sternally recumbent, then individually housed for 14 days in an AAALAC accredited facility (water and food ad libitum; 12/12 hour light cycle).
After 14 days the animals were euthanized in a CO2 chamber and the discs were removed. […] Cellular penetration into the discs was quantified using a digital imaging system (Imaging Research Inc., St. Catharines, Ontario, Canada). The total area of the disc was calculated, as was the area containing stained cells. […]
Results. Following staining with toludine blue or Factor VIII, neovascularization was quantitated by densitometry.

human endothelial cells = test: Proliferation and migration of human endothelial cells; format: cell-based

Sequence of c-Met (P08581 308-1390 limits assumed): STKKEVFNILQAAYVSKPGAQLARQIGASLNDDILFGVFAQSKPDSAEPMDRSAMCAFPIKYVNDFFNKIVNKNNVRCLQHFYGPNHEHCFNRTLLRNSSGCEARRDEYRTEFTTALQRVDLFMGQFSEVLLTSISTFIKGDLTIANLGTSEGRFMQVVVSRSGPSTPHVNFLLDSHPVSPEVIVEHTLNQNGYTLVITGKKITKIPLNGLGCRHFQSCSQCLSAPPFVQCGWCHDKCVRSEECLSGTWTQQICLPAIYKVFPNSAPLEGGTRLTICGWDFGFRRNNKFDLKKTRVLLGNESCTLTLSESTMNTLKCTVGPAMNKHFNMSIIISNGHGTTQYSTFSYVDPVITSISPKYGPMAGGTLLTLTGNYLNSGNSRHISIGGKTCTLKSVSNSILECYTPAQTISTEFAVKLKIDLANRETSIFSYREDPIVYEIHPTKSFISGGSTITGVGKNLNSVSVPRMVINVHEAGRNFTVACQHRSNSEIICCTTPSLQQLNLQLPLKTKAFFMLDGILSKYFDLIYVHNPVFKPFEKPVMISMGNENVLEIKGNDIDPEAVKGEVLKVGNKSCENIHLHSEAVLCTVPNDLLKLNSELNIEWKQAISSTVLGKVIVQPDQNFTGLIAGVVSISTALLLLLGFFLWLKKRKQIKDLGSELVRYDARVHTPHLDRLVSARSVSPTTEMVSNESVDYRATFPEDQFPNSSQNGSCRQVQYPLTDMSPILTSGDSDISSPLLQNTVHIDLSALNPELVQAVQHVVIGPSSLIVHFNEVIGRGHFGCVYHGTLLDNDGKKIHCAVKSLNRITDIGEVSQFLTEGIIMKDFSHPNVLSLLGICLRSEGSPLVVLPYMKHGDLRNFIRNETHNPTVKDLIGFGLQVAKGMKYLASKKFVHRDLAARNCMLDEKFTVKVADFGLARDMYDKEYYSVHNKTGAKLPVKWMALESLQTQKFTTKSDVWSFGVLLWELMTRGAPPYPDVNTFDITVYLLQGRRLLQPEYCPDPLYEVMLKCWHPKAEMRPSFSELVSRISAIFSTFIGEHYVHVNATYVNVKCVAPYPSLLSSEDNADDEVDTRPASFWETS
Sequence of c-Met (P08581 25-307 limits assumed): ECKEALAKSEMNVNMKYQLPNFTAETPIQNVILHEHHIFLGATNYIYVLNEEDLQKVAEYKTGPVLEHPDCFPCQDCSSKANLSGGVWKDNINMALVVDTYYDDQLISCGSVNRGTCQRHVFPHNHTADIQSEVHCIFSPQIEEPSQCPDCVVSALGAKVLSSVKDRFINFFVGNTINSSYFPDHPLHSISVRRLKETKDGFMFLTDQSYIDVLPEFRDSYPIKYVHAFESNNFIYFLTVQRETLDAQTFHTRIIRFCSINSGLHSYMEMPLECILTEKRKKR

Row | Concentration at which c-Met auto-phosphorylation saturates (c-Met) | Substance | Competition for 125I-Norleual specific binding to HEK293 cell membranes [1] | Effect on 125I-COMPOUND 2 binding to HEK cells (c-Met receptor) | Effect on angiogenesis in disc assay versus SGC discs (neovascularization) | Proliferation and migration of human endothelial cells (human endothelial cells)
1 | 550 pM | HGF: Hepatocyte growth factor (SEQ ID NO:83), purchased from R&D systems; native ligand of the c-Met receptor | competed | blocked |  | 
2 |  | Nle-Tyr-Ile-6(amino) hexanoic acid amide [Compound 4] |  |  | antagonist activity | 
3 |  | Nle-Tyr-Ile-His ([Nle]YIH) [Compound 3] |  |  | antagonist activity | 
4 |  | Nle-Tyr-Ile-His-Pro-Phe ([Nle]YIHPF) [Compound 1] |  |  | lone AT4 receptor agonist | augmented
